US4129648A, “Method for reducing endogenous prostaglandin synthesis” (priority 1977, dated 1978)
Where a name gives a salt, the structure may show the parent alone.

What was measured:
[1] = test system: bronchoconstriction induced by sodium arachidonate; assay: Dynamic compliance and airway resistance in the anaesthetized guinea pig challenged with sodium arachidonate; format: in vivo
Procedure: (§1) The ability of Cohn subfraction IV4 and haptoglobin to reduce the transient hypertension caused by administration of sodium arachidonate in the guinea pig was also measured. These tests were carried out as follows.
(§2) Male albino guinea pigs weighing 400-600 g each (Dunkin Hartley strain) were anesthetized by administration of sodium pentobarbitone, 60 mg/kg intraperitoneally. The trachea was cannulated for artificial ventilation by a Starling pump (5-8 ml at 72 strokes per minute) via a Fleisch 0000 pneumatachograph. The difference in pressure across this device was measured with a Grass differential pressure transducer. […] Transpulmonary pressure (TPP) was measured with another differential pressure transducer via side arms to the thoracic cavity and the tracheal cannula. The signals for low and TPP were applied to the analogue computer so that there was approximately 180° phase difference. The computer derived the dynamic compliance and resistance from the in-going signals. Drugs were administered intravenously via the external jugular vein. A 1 mg/ml solution of sodium arachidonate was prepared as follows. […] These doses were given at 30 minute intervals to produce a large but submaximal bronchoconstriction. After 2 or 3 similar responses to the same dose of sodium arachidonate had been obtained, the test substance in saline (0.1 to 1 ml) was injected intravenously. At various times thereafter, a challenge was given.

[2] = test system: transient hypertension induced by sodium arachidonate; assay: Mean arterial blood pressure in the anaesthetized guinea pig challenged with sodium arachidonate; format: in vivo
Procedure: as §1, §2
The left carotid artery was cannulated for recording blood pressure with a Grass pressure transducer (Consolidated Dynamics 0.75 cm Hg type 4L221) linked to a Devices twin channel polygraph via a CD2D pre-amplifier. Electrocardiograms were recorded using a DC6 pre-amplifier linked to the Devices polygraph.

[3] = dose 0.04 mg/kg intravenously, challenge 30 min after treatment
[4] = dose 0.20 mg/kg intravenously, challenge 30 min after treatment
[5] = dose 0.50 mg/kg intravenously, challenge 30 min after treatment
[6] = dose 0.50 mg/kg intravenously, challenge 60 min after treatment
[7] = dose 2 mg/kg intravenously, challenge 45 sec after treatment
[8] = dose 2 mg/kg intravenously, challenge 30 min after treatment
[9] = dose 15 mg/kg intravenously, challenge 45 sec after treatment
[10] = dose 15 mg/kg intravenously, challenge 10 min after treatment
[11] = dose 15 mg/kg intravenously, challenge 30 min after treatment
[12] = dose 15 mg/kg intravenously, challenge 60 min after treatment
[13] = dose 15 mg/kg intravenously, challenge 90 min after treatment
[14] = dose 15 mg/kg intravenously, challenge 120 min after treatment
[15] = dose 0.03 mg/kg intravenously, challenge 45 sec after treatment
[16] = dose 0.10 mg/kg intravenously, challenge 45 sec after treatment
[17] = dose 25μ/kg intravenously, challenge 30 min after treatment
[18] = dose 25μ/kg intravenously, challenge 60 min after treatment
[19] = dose 25μ/kg intravenously, challenge 90 min after treatment
[20] = dose 25μ/kg intravenously, challenge 120 min after treatment
[21] = dose 25μ/kg intravenously, challenge 150 min after treatment
[22] = dose 50μ/kg intravenously, challenge 30 min after treatment
[23] = dose 50μ/kg intravenously, challenge 60 min after treatment
[24] = dose 50μ/kg intravenously, challenge 90 min after treatment
[25] = dose 50μ/kg intravenously, challenge 120 min after treatment
[26] = dose 50μ/kg intravenously, challenge 150 min after treatment
[27] = dose 50μ/kg intravenously, challenge 180 min after treatment
[28] = dose 50μ/kg intravenously, challenge 210 min after treatment
[29] = dose 50μ/kg intravenously, challenge 240 min after treatment
[30] = dose 5 mg/kg intravenously, challenge 45 sec after treatment
[31] = dose 20 mg/kg intravenously, challenge 45 sec after treatment
[32] = dose 50 mg/kg intravenously, challenge 45 sec after treatment
[33] = dose 100 mg/kg intravenously, challenge 45 sec after treatment

## C[C@]12CCC(=O)C=C1CC[C@@H]1[C@@H]2[C@@H](O)C[C@]2(C=O)[C@@H](C(=O)CO)CC[C@@H]12 [Aldosterone, aldosterone]
[1]; [3]
  Mean % Inhibition (± s.e.) of educed dynamic lung compliance: 0%
  Mean % Inhibition (± s.e.) of increased airway resistance: 9.0%
[1]; [4]
  Mean % Inhibition (± s.e.) of educed dynamic lung compliance: 1.0%
  Mean % Inhibition (± s.e.) of increased airway resistance: 14.0%
[1]; [5]
  Mean % Inhibition (± s.e.) of educed dynamic lung compliance: 10.5 ± 6.5%
  Mean % Inhibition (± s.e.) of increased airway resistance: 0%
[1]; [6]
  Mean % Inhibition (± s.e.) of educed dynamic lung compliance: 5.0 ± 5.0%
  Mean % Inhibition (± s.e.) of increased airway resistance: 6.5 ± 6.5%

## CC(=O)Oc1ccccc1C(=O)O [Aspirin, aspirin calcium salt]
[1]; [7]
  Mean % Inhibition (± s.e.) of educed dynamic lung compliance: 71.5 ± 6.5%
  Mean % Inhibition (± s.e.) of increased airway resistance: 85.5 ± 3.5%
[1]; [8]
  Mean % Inhibition (± s.e.) of educed dynamic lung compliance: 81.5 ± 7.5%
  Mean % Inhibition (± s.e.) of increased airway resistance: 91.0 ± 9.0%

## C[C@]12CCC(=O)C=C1CC[C@@H]1[C@@H]2[C@@H](O)C[C@@]2(C)[C@H]1CC[C@]2(O)C(=O)COC(=O)CCC(=O)O [Hydrocortisone, hydrocortisone sodium succinate]
[1]; [9]
  Mean % Inhibition (± s.e.) of educed dynamic lung compliance: 15.0 ± 7.5%
  Mean % Inhibition (± s.e.) of increased airway resistance: 24.0 ± 1.5%
[1]; [10]
  Mean % Inhibition (± s.e.) of educed dynamic lung compliance: 21.3 ± 4.2%
  Mean % Inhibition (± s.e.) of increased airway resistance: 24.3 ± 6.8%
[1]; [11]
  Mean % Inhibition (± s.e.) of educed dynamic lung compliance: 49.0 ± 9.7%
  Mean % Inhibition (± s.e.) of increased airway resistance: 46.2 ± 5.7%
[1]; [12]
  Mean % Inhibition (± s.e.) of educed dynamic lung compliance: 44.0 ± 6.0%
  Mean % Inhibition (± s.e.) of increased airway resistance: 61.0 ± 3.0%
[1]; [13]
  Mean % Inhibition (± s.e.) of educed dynamic lung compliance: 25.0%
  Mean % Inhibition (± s.e.) of increased airway resistance: 54.0%
[1]; [14]
  Mean % Inhibition (± s.e.) of educed dynamic lung compliance: 12.0%
  Mean % Inhibition (± s.e.) of increased airway resistance: 17.0%
[2]; [9]
  Mean % Inhibition (± s.e.) of hypertension: 35.0 ± 2.0%
[2]; [10]
  Mean % Inhibition (± s.e.) of hypertension: 48.0 ± 18.0%
[2]; [11]
  Mean % Inhibition (± s.e.) of hypertension: 25.0 ± 25.0%
[2]; [12]
  Mean % Inhibition (± s.e.) of hypertension: 25.0%

## COc1ccc2c(c1)c(CC(=O)O)c(C)n2C(=O)c1ccc(Cl)cc1 [Indomethacin, indomethacin sodium salt]
[1]; [15]
  Mean % Inhibition (± s.e.) of educed dynamic lung compliance: 58.7 ± 15.7%
  Mean % Inhibition (± s.e.) of increased airway resistance: 47.0 ± 15.8%
[1]; [16]
  Mean % Inhibition (± s.e.) of educed dynamic lung compliance: 85.5 ± 14.5%
  Mean % Inhibition (± s.e.) of increased airway resistance: 90.5 ± 9.5%
[2]; [15]
  Mean % Inhibition (± s.e.) of hypertension: 65.0 ± 2.1%

## ACTH: a drenocorticotrophin (ACTH), well known anti-inflammatory agent (SYSMEHFRWGKPVGKKRRPVKVYPNGAEDESAEAFPLEF; Corticotropin; UniProt P01189 138-176, looked up)
[1]; [17]
  Mean % Inhibition (± s.e.) of educed dynamic lung compliance: 16.5 ± 16.5%
  Mean % Inhibition (± s.e.) of increased airway resistance: 31.5 ± 24.5%
[1]; [18]
  Mean % Inhibition (± s.e.) of educed dynamic lung compliance: 35.5 ± 2.5%
  Mean % Inhibition (± s.e.) of increased airway resistance: 55.5 ± 3.5%
[1]; [19]
  Mean % Inhibition (± s.e.) of educed dynamic lung compliance: 62.5 ± 12.5%
  Mean % Inhibition (± s.e.) of increased airway resistance: 72.5 ± 12.5%
[1]; [20]
  Mean % Inhibition (± s.e.) of educed dynamic lung compliance: 53.0 ± 3.0%
  Mean % Inhibition (± s.e.) of increased airway resistance: 68.5 ± 16.5%
[1]; [21]
  Mean % Inhibition (± s.e.) of educed dynamic lung compliance: 63.0%
  Mean % Inhibition (± s.e.) of increased airway resistance: 85.0%
[1]; [22]
  Mean % Inhibition (± s.e.) of increased airway resistance: 52.0%
[1]; [23]
  Mean % Inhibition (± s.e.) of increased airway resistance: 73.0%
[1]; [24]
  Mean % Inhibition (± s.e.) of increased airway resistance: 73.0%
[1]; [25]
  Mean % Inhibition (± s.e.) of increased airway resistance: 91.0%
[1]; [26]
  Mean % Inhibition (± s.e.) of increased airway resistance: 68.0%
[1]; [27]
  Mean % Inhibition (± s.e.) of increased airway resistance: 59.0%
[1]; [28]
  Mean % Inhibition (± s.e.) of increased airway resistance: 66.0%
[1]; [29]
  Mean % Inhibition (± s.e.) of increased airway resistance: 67.0%
[1]; intravenously, challenge 30 min after treatment
  Mean % Inhibition (± s.e.) of educed dynamic lung compliance: 67.0%
[1]; intravenously, challenge 60 min after treatment
  Mean % Inhibition (± s.e.) of educed dynamic lung compliance: 50.0%
[1]; intravenously, challenge 90 min after treatment
  Mean % Inhibition (± s.e.) of educed dynamic lung compliance: 67.0%
[1]; intravenously, challenge 120 min after treatment
  Mean % Inhibition (± s.e.) of educed dynamic lung compliance: 75.0%
[1]; intravenously, challenge 150 min after treatment
  Mean % Inhibition (± s.e.) of educed dynamic lung compliance: 58.0%
[1]; intravenously, challenge 180 min after treatment
  Mean % Inhibition (± s.e.) of educed dynamic lung compliance: 75.0%
[1]; intravenously, challenge 210 min after treatment
  Mean % Inhibition (± s.e.) of educed dynamic lung compliance: 75.0%
[1]; intravenously, challenge 240 min after treatment
  Mean % Inhibition (± s.e.) of educed dynamic lung compliance: 75.0%
[2]; [17]
  Mean % Inhibition (± s.e.) of hypertension: 24.0 ± 10.0%
[2]; [18]
  Mean % Inhibition (± s.e.) of hypertension: 28.5 ± 14.5%
[2]; [19]
  Mean % Inhibition (± s.e.) of hypertension: 49.0 ± 15.0%
[2]; [20]
  Mean % Inhibition (± s.e.) of hypertension: 53.5 ± 3.5%
[2]; [21]
  Mean % Inhibition (± s.e.) of hypertension: 17.0%
[2]; [22]
  Mean % Inhibition (± s.e.) of hypertension: 83.0%
[2]; [23]
  Mean % Inhibition (± s.e.) of hypertension: 67.0%
[2]; [24]
  Mean % Inhibition (± s.e.) of hypertension: 100.0%
[2]; [25]
  Mean % Inhibition (± s.e.) of hypertension: 67.0%
[2]; [26]
  Mean % Inhibition (± s.e.) of hypertension: 100.0%
[2]; [27]
  Mean % Inhibition (± s.e.) of hypertension: 83.0%
[2]; [28]
  Mean % Inhibition (± s.e.) of hypertension: 100.0%
[2]; [29]
  Mean % Inhibition (± s.e.) of hypertension: 100.0%

## Haptoglobin heated to 60° C 15 min: haptoglobin from Cohn subfraction IV4 by ammonium sulphate purification, partially heat-inactivated
[1]; [30]
  Mean % Inhibition (± s.e.) of educed dynamic lung compliance: 6.3 ± 6.3%
  Mean % Inhibition (± s.e.) of increased airway resistance: 10.3 ± 5.2%
[2]; [30]
  Mean % Inhibition (± s.e.) of hypertension: 7.0 ± 7.0%

## Haptoglobin: obtained from human plasma Cohn subfraction IV4 by ammonium sulphate purification and DEAE cellulose chromatography
[1]; [30]
  Mean % Inhibition (± s.e.) of educed dynamic lung compliance: 27.4 ± 5.3%
  Mean % Inhibition (± s.e.) of increased airway resistance: 31.8 ± 4.7%
[1]; [31]
  Mean % Inhibition (± s.e.) of educed dynamic lung compliance: 34.3 ± 7.4%
  Mean % Inhibition (± s.e.) of increased airway resistance: 44.3 ± 6.7%
[1]; [32]
  Mean % Inhibition (± s.e.) of educed dynamic lung compliance: 49.0 ± 3.2%
  Mean % Inhibition (± s.e.) of increased airway resistance: 67.7 ± 0.3%
[1]; [33]
  Mean % Inhibition (± s.e.) of educed dynamic lung compliance: 64.0 ± 0%
  Mean % Inhibition (± s.e.) of increased airway resistance: 67.0 ± 8.0%
[2]; [30]
  Mean % Inhibition (± s.e.) of hypertension: 34.5 ± 13.9%
[2]; [31]
  Mean % Inhibition (± s.e.) of hypertension: 83.5 ± 16.5%
[2]; [32]
  Mean % Inhibition (± s.e.) of hypertension: 90.0 ± 10.0%
[2]; [33]
  Mean % Inhibition (± s.e.) of hypertension: 73.0%
